# Experimental data taken from article PMC5867678 (Journal of Medicinal Chemistry, 2018).
# Entries after “also recorded” stand apart in the source; their conditions may differ. Where two headings read alike, the source gives them in different places.
# How the values were obtained:
# [1] = tested on: Salmonella typhimurium (TA98 and TA100); assay: Ames test (Mini-Ames reverse mutation screen); assay type: cell-based; conditions: strains TA98 and TA100, with or without S9
# Description: Two strains of Salmonella typhimurium (TA98 and TA100) were employed, in the presence and absence of metabolic activation (rat liver S9). Positive controls (2-aminoanthracene, 2-nitrofluorene, and sodium azide) and a negative (DMSO solvent) control were included.
# [2] = Permeability assay in MDCK-MDR1 cells; conditions: dog
# [3] = Mouse pharmacokinetics; conditions: in vivo; for AUC(0-t) / Cmax: female, BALB/c, 40 mg/kg; for AUC(0-t) / Cmax / bioavailability: po; for bioavailability: male
# [4] = Rat pharmacokinetics; design: species or system Sprague-Dawley rats; conditions: male, Sprague-Dawley, in vivo, po, 40 mg/kg
# Protocol: All studies were conducted in fasted animals (either male Sprague-Dawley rats or female golden Syrian hamsters) by WuXi AppTec (Shanghai) Co., Ltd. Intravenous dosing (at 1 mg/kg for rats and 2 mg/kg for hamsters) utilized a solution formulation of 20% NMP and 40% PEG-400 in citrate buffer (pH 3). In rats, oral dosing (at 40–50 mg/kg) was as a suspension in 0.08% Tween 80 and 0.5% CMC in water, whereas PEG-400 was the vehicle employed for oral dosing in hamsters (at 40–50 mg/kg). Plasma samples (at 0.083 for iv only, 0.25, 0.5, 1, 2, 4, 8, and 24 h) were analyzed by LC–MS/MS, and the PK parameters were calculated using Phoenix WinNonlin software (version 6.3).
# [5] = Hamster pharmacokinetics; design: species or system golden Syrian hamsters; conditions: female, golden Syrian, in vivo, po
# [6] = Microsomal stability, human liver microsomes; assay type: in vitro ADME; conditions: pooled human liver microsomes; for remaining at 0.5 h, 0.5 μM: 30 min (data in parentheses)
# [7] = Microsomal stability, CD-1 mouse liver microsomes; assay type: in vitro ADME; conditions: for remaining at 0.5 h, 0.5 μM: 30 min (data in parentheses)
# [8] = human, in vivo; cited from earlier work
# [9] = tested on: Salmonella typhimurium (TA98 and TA100); conditions: cited from earlier work
# [10] = cited from earlier work
# [11] = tested on: Caco-2; design: method as in PMID 25261338; conditions: Caco-2 data; cited from earlier work
compound,measurement,setting,value
"O=[N+]([O-])c1cn2c(n1)OC[C@H](Oc1ccc(OC(F)(F)F)cc1)C2 [R-6, (6R)-2-Nitro-6-[4-(trifluoromethoxy)phenoxy]-6,7-dihydro-5H-imidazo[2,1-b][1,3]oxazine]",mutagenic effect (Ames test),[1],negative; also recorded: no ^d
same,"Papp A→B at […], 2 µM",[2],32.4 ×10⁻⁶ cm/s
same,AUC(0-t),[3],272 µg·h/mL
same,Cmax,[3],21000 ng/mL
same,AUC(0-t),[4],80.6 µg·h/mL
same,Cmax,[4],5200 ng/mL
O=[N+]([O-])c1cn2c(n1)OC[C@H](OCc1ccc(-c3ccc(OC(F)(F)F)cc3)cn1)C2 [R-84],AUC(0-t),[3],211 µg·h/mL
same,Cmax,[3],16000 ng/mL
O=[N+]([O-])c1cn2c(n1)OC[C@H](OCc1ccc(-c3ccc(OC(F)(F)F)cc3F)cn1)C2 [R-89],AUC(0-t),[3],265 µg·h/mL
same,Cmax,[3],32000 ng/mL
O=[N+]([O-])c1cn2c(n1)OC[C@H](OCc1ccc(-c3ccc(F)cc3F)cn1)C2 [R-96],bioavailability,[5],21 to 37%
same,"remaining at 1 h, 1 μM",[6],57 to 59%
same,"remaining at 1 h, 1 μM",[7],57 to 59%
O=[N+]([O-])c1cn2c(n1)OC[C@H](OCc1ccc(-c3ccc(F)cc3F)nc1)C2 [R-106],bioavailability,[5],21 to 37%
"O=[N+]([O-])c1cn2c(n1)OC[C@H](Oc1ccc(C(F)(F)F)cn1)C2 [R-136, (6R)-2-Nitro-6-{[5-(trifluoromethyl)pyridin-2-yl]oxy}-6,7-dihydro-5H-imidazo[2,1-b][1,3]oxazine]","remaining at 1 h, 1 μM",[6],90 to 92%
same,"remaining at 1 h, 1 μM",[7],90 to 92%
same,mutagenic effect (Ames test),[1],positive
"O=[N+]([O-])c1cn2c(n1)OC[C@@H](OCc1ccc(OC(F)(F)F)cc1)C2 [S-1, (6S)-2-nitro-6-{[4-(trifluoromethoxy)benzyl]oxy}-6,7-dihydro-5H-imidazo[2,1-b][1,3]oxazine]",half-life in clinical trials for TB,[8],16 to 18 h
O=[N+]([O-])c1cn2c(n1)OC[C@@H](OCc1cccc(-c3ccc(OC(F)(F)F)cc3)n1)C2 [S-77],"remaining at 0.5 h, 0.5 μM",[6],> 70%
same,"remaining at 0.5 h, 0.5 μM",[7],> 70%
O=[N+]([O-])c1cn2c(n1)OC[C@@H](OCc1cccc(-c3ccc(F)cc3)n1)C2 [S-81],"remaining at 0.5 h, 0.5 μM",[6],> 70%
same,"remaining at 0.5 h, 0.5 μM",[7],> 70%
O=[N+]([O-])c1cn2c(n1)OC[C@@H](OCc1ccc(-c3ccc(OC(F)(F)F)cc3F)cn1)C2 [S-89],"remaining at 0.5 h, 0.5 μM",[6],> 70%
same,"remaining at 0.5 h, 0.5 μM",[7],> 70%
O=[N+]([O-])c1cn2c(n1)OC[C@@H](OCc1ccc(-c3ccc(OC(F)(F)F)cc3Cl)cn1)C2 [S-91],"remaining at 0.5 h, 0.5 μM",[6],> 70%
same,"remaining at 0.5 h, 0.5 μM",[7],> 70%
O=[N+]([O-])c1cn2c(n1)OC[C@@H](OCc1ccc(-c3ccc(OC(F)F)cc3)cn1)C2 [S-92],"remaining at 0.5 h, 0.5 μM",[6],> 70%
same,"remaining at 0.5 h, 0.5 μM",[7],> 70%
C[C@]1(COc2ccc(OC(F)(F)F)cc2)Cn2cc([N+](=O)[O-])nc2O1 [compound 4],mutagenic effect (Ames test),[9],no
same,LogD (measured),[10],3.10
same,"permeability, Papp A to B",[11],22.6 ×10^–6 cm/s
same,"permeability, Papp B to A",[11],24.7 ×10^–6 cm/s
O=[N+]([O-])c1cn2c(n1)OCC(COc1ccc(OC(F)(F)F)cc1)C2 (stereo not drawn) [compound 24],half-life,"[3]; Swiss albino, iv, 1 mg/kg",2 h
O=[N+]([O-])c1cn2c(n1)OCC(COc1ccc(-c3ccc(OC(F)(F)F)cc3)nc1)C2 (stereo not drawn) [compound 116],bioavailability,[3]; Swiss albino,11 to 15%
O=[N+]([O-])c1cn2c(n1)OCC(COc1ccc(-c3ccc(F)cc3)nc1)C2 (stereo not drawn) [compound 117],bioavailability,[3]; Swiss albino,11 to 15%
CSc1ccc(OCc2ncc([N+](=O)[O-])n2C)cc1 [fexinidazole],Ames test result,[9],positive
